In patent US10100041B2, “Pyrazolyl substituted tetrahydropyranylsulfones” (GRÜNENTHAL GMBH, priority 2015, dated 2018):

Molecular target: T1, Human CaV2.2 channels (Homo sapiens, UniProt Q00975)
T1 construct: expressed in transfected cells
Assay: Fluorescence assay for CaV2.2 channels using potassium depolarization to induce channel opening (FLIPR, Fluo 4)
Format: cell-based
Conditions: 30 mM KCl (alternative assay buffer, inactivated channel state), HEK293 cells; for inhibition at 3 µM: HEK293, 3 μM test compound, read-out: Activity Category: %-Inhib (CaV2.2) @3 μM @30 mM KCl
Description: In the process, the Ca^2+ influx is quantified in the FLIPR assay with the aid of a Ca^2+-sensitive dye (type Fluo-4, Molecular Probes Europe BV, Leiden, the Netherlands) in a fluorescent imaging plate reader (FLIPR 3, Molecular Devices, Sunnyvale, USA), as described hereinafter.
2.1 Fluorescence Assay for CaV2.2 Channels Using Potassium Depolarization to Induce Channel Opening
Human CaV2.2 channels were stably expressed in HEK293 cells together with alpha2-delta and beta subunits of voltage gated calcium channels. In addition, an inwardly rectifying potassium channel (Kir2.3) was stably expressed in these cells to augment control of the cell membrane potential by the concentration of extracellular potassium ions. Raise of the extracellular potassium concentration leads to depolarization of the membrane potential and thus regulates the voltage dependent state of CaV2.2 channels. For preparation, cells were seeded in black poly-D-lysine coated 96-well plates (Becton Dickinson, Biocoat 4640) in 100 μL medium [500 mL DMEM/F-12 plus Glutamax (Invitrogen 31331-093) plus 5.5 mL MEM NEAA 100× (Invitrogen 11140-035) plus 50 mL FBS decomplemented (Invitrogen 10270-106) plus 200 μg/mL Geneticin (Invitrogen 10131-027) plus 50 μg/mL Hygromycin B (Invitrogen 10687-010) plus 2 μg/mL Blasticidin (anti-b15b Invivo-Gen) plus 0.2 μg/mL Puromycin (A 11138-03)] at a cell density of 30.000 cells per well. Plates were incubated at 37° C. (5% CO2) for 20 to 23 h. On the day of experiment medium was discarded and cells were loaded with Fluo 4 by addition of 100 μL of basic assay buffer (10 mM HEPES, 1 mM KCl, 149 mM NaCl, 0.8 mM CaCl2, 1.7 mM MgCl2, 10 mM Glucose, 0.1% BSA. pH 7.4) containing 2 μM Fluo 4 (Molecular Probes; F-14201), 0.01% pluronic acid (Molecular Probes; P-6866) and 2.5 mM probenecid (Molecular Probes; P36400). Cells were incubated in the dark at 25° C. for 60 min. Then dye containing buffer was discarded and […] basic (1 mM KCl) or alternative (30 mM KCl) assay buffer was added. The alternative assay buffer contained altered concentrations of KCl (30 mM) and NaCl (120 mM) and was used in order to promote the inactivated channel state. After that 25 μL of basic or alternative assay buffer with or without test compound were added and cells were incubated again in the dark at 25° C. for 15 min. Fluorescence intensity was measured on a FLIPR 3 instrument (Molecular Devices Corp., Sunnyvale, Calif.) with excitation at 480 nm and emission at 535 nm. After continuously reading fluorescence for 30 sec, 50 μL of basic assay buffer containing 210 mM KCl (NaCl omitted) were added for depolarization. Peak fluorescent signal intensity was determined and the amplitude of the peak signal, normalized to base line, was used to measure channel inhibition by test compounds.

T1 sequence (Q00975 whole entry): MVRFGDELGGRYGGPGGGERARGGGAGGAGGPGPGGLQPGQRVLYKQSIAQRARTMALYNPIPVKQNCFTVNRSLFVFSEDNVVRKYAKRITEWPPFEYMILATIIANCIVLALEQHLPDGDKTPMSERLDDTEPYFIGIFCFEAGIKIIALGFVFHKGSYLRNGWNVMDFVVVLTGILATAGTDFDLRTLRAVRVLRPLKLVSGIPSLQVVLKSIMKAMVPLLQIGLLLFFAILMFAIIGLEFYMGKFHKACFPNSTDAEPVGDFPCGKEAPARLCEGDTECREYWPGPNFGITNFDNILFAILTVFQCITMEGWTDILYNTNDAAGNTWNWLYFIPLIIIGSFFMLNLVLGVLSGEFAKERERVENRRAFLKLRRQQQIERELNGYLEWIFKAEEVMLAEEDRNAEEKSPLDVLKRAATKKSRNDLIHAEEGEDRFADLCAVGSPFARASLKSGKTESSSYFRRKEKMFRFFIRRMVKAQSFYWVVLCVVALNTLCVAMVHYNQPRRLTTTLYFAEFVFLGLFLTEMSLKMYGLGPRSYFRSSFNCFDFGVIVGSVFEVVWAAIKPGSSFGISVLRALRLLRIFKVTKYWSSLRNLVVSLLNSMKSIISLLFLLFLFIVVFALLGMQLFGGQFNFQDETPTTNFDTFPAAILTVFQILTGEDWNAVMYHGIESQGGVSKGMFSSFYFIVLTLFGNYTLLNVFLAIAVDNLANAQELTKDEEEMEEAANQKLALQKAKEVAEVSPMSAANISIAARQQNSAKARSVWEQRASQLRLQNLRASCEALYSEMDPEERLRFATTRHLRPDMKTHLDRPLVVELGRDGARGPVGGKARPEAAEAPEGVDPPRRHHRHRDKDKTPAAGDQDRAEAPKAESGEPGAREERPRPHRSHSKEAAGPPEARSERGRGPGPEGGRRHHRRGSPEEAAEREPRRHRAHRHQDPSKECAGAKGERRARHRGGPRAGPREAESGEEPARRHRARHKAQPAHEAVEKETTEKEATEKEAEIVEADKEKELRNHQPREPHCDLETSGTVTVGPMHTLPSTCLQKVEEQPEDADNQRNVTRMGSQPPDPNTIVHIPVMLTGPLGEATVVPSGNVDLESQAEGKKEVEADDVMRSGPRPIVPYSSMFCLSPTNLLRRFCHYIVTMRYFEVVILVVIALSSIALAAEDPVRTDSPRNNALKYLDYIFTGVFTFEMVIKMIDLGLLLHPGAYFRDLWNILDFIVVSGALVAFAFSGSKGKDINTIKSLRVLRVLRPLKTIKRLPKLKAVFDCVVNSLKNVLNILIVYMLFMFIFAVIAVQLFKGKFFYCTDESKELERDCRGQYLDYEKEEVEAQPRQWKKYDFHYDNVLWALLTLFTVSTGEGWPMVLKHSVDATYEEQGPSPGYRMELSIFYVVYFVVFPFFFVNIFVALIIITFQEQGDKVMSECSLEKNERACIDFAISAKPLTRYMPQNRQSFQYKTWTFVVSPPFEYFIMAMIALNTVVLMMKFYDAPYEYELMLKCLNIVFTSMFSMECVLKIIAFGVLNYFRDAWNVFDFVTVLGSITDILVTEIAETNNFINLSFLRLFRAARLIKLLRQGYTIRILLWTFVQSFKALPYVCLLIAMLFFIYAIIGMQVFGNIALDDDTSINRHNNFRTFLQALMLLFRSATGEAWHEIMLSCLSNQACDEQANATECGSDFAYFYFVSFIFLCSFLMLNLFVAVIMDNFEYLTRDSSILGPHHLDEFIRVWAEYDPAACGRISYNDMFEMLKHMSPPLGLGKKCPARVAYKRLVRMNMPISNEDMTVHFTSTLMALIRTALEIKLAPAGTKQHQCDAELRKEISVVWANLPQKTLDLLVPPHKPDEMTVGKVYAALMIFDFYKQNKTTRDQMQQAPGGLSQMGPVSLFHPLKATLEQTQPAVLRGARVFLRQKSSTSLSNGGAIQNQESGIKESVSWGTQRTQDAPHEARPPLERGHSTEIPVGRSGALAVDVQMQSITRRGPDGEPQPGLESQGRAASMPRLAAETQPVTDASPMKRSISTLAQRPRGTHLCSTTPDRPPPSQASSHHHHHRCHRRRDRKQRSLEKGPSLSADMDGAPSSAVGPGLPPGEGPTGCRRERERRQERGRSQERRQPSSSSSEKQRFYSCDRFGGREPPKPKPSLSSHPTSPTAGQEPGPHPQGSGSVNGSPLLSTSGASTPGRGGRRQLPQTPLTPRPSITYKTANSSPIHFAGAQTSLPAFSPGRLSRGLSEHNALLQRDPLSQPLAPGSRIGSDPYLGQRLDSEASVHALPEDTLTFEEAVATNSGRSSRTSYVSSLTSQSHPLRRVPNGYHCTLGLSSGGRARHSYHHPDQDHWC

COCCn1nc(S(C)(=O)=O)cc1C1CC(C)(S(=O)(=O)c2cccc(C(F)(F)F)c2)CCO1 (racemic) [Example 23 cis-rac, 1-(2-Methoxyethyl)-5-(4-methyl-4-((3-(trifluoromethyl)phenyl)sulfonyl)tetrahydro-2H-pyran-2-yl)-3-(methylsulfonyl)-1H-pyrazole]
inhibition at 3 µM: 75 to 95%

CC(C)(C(N)=O)n1nc(C(F)(F)F)cc1C1CC(C)(S(=O)(=O)c2cccc(C(F)(F)F)c2)CCO1 (stereo not drawn) [Example 26 cis-EN2, 2-Methyl-2-[5-[4-methyl-4-[[3-(trifluoromethyl)phenyl]sulfonyl]-tetrahydro-pyran-2-yl]-3-(trifluoromethyl)-1H-pyrazol-1-yl]-propionamide]
Activity Category: %-Inhib (CaV2.2) @3 μM @30 mM KCl (3 μM test compound): B (“B”: %-Inhibition >75% up to ≤95%)

CC1(S(=O)(=O)c2cccc(C(F)(F)F)c2)CCOC(c2cc(C(F)(F)F)nn2C2COC2)C1 (stereo not drawn) [Example 17 cis-EN1, 5-[4-Methyl-4-[[3-(trifluoromethyl)phenyl]sulfonyl]-tetrahydro-pyran-2-yl]-1-(oxetan-3-yl)-3-(trifluoromethyl)-1H-pyrazole]
inhibition at 3 µM: 75 to 95%

COCn1nc(C(F)(F)F)cc1C1CC(C)(S(=O)(=O)c2cccc(C(F)(F)F)c2)CCO1 (stereo not drawn) [Example 21 cis-EN1, 1-(Methoxymethyl)-5-[4-methyl-4-[[3-(trifluoromethyl)phenyl]sulfonyl]-tetrahydro-pyran-2-yl]-3-(trifluoromethyl)-1H-pyrazole]
inhibition at 3 µM: > 95%

CC1(S(=O)(=O)c2cccc(C(F)(F)F)c2)CCOC(c2cc(C(F)(F)F)nn2CCO)C1 (racemic) [Example 2 trans-rac, 2-[5-[4-Methyl-4-[[3-(trifluoromethyl)phenyl]sulfonyl]-tetrahydro-pyran-2-yl]-3-(trifluoromethyl)-1H-pyrazol-1-yl]-ethanol]
inhibition at 3 µM: 40 to 75%
